Reference: patent publication US20150250882A1, “Fatty Acid Acylated Amino Acids for Growth Hormone Delivery” (Novo Nordisk Health Care AG, priority 2012, published 2015)

How the values were obtained:
HT29-MTX (E12) cells = assay: Transepithelial transport of GH compounds across E12 cell monolayers (Papp); format: in vitro ADME; conditions: for Fold increase (Papp of GH A2 + FA-aa relative to GH A2 alone): GH-A2, same procedure: 0.5 mM FA-aa, transport buffer pH 7.4; for effect on permeation / trans-epithelia transport of the growth hormone compounds (in words): GH-A1 and GH-A2; for effect on GH A1 transport (in words): based on fold increase relative to GH A1 alone; for effect on the transportation of GH A2 (in words): fold increase relative to GH A2 alone
Procedure: HT29-MTX (E12) cells (Pharm Res. 2001; 18(8):1138-45 and Pharm Res. 2007; 24(7):1346-56) were grown in Dulbecco's Modified Eagle Medium supplemented with 10% foetal bovine serum (FBS), 1% penicillin/streptomycin, 1% L-glutamine and 1% non-essential amino acids. For the transport assay, E12 cells were seeded onto tissue culture treated polycarbonate filters in 12-well Transwell® plates (1.13 cm2, 0.4 μm pore size) at a density of 10^5 cells per well. Cells were cultured at 37° C. in an atmosphere of 5% CO2 and the culture media was exchange every second day. Transport experiments were performed after 14-18 days in culture.
The amount of GH compound transported from the donor chamber (apical side) to the receiver chamber (basolateral side) was measured.
Before the experiment, the E12 cells are equilibrated for 60 min with transport buffer on both sides of the epithelium. Buffer is then removed and the experiment initiated by adding a test solution to the donor chamber and a corresponding transport buffer to the receiver chamber. Donor samples ([…]) are taken at 0 min and at the end of the experiment. Receiver samples ([…]) are taken at regular intervals such as every 15 min. The study is usually performed in an atmosphere of 5% CO2-95% O2 at 37° C. on a shaking plate (30 rpm).
Transport of [3H]mannitol, a marker for paracellular transport, may be measured, to verify the integrity of the epithelium, using a scintillation counter.
Before and during the experiment the transepithelial electrical resistance (TEER) of the cell monolayers is monitored. The TEER is measured with EVOM™ Epithelial Voltohmmeter connected to Chopsticks.
The transport study was performed as described in General Method D (Example 1). […] […] The permeation (Papp) of a Growth hormone compound in the presence of different FA-aa's was measured and the fold increase (or decrease) compared to the Growth hormone compound alone was calculated.

[1] = Intra intestinal (mid-jejunum) administration of GH compounds with FA-aa to rats, AUC enhancement; format: in vivo, Sprague-Dawley rats; conditions: SBTI 2% with C16-sarcosinate 30 mg/ml, FIGS. 5, 6 and 7
Procedure: Each composition is prepared as a 100 pl dosage injected into mid-jejenum of fully anaesthetized overnight fasted Sprague-Dawley rats (n=6, 9 or 18).
At each sampling time 0.25 ml blood is drawn from the tail vein using a 25 G needle. Sampling times are: pre-dose and 0.25, 0.5, 1, 2, 4 and 6 hours after dosing. The blood is sampled into a EDTA coated test tube and stored on ice until centrifugation at 1200×G for 10 min at 4° C. Plasma is transferred to a Micronic tube and stored at −20° C. until analysis.
The limit of detection of the assay was 0.2 nM.
The samples were analysed using a Luminescence Oxygen Channeling Immunoassay (LOCI), a homogenous bead based assay. […] One of the bead reagents is a generic reagent (donor beads) and is coated with streptavidin and contains a photosensitive dye. The second bead reagent (acceptor beads) is coated with an antibody making up the sandwich. […] Illumination of the complex releases singlet oxygen from the donor beads which channels into the acceptor beads and triggers chemiluminescence which is measured in the EnVision plate reader. […]

[2] = Pharmacokinetics (T½) of growth hormone compounds in rats after i.v./s.c. single dose; format: in vivo, Sprague Dawley rats; conditions: assay of Example 1.C (i.v. or s.c.)
Procedure: The pharmacokinetic of the compounds of the examples is investigated in male Sprague Dawley rats after intravenous (i.v.) and subcutaneous (s.c.) single dose administration.
Test compounds are diluted to a final concentration of 1 mg/mL in a dilution buffer consisting of: Glycine 20 mg/mL, mannitol 2 mg/mL, NaHCO3 2.5 mg/mL, pH adjusted to 8.2.
The test compounds are studied in male Sprague Dawley rats weighing 250 g. The test compounds are administered as a single injection either i.v. in the tail vein or s.c. in the neck with a 25 G needle at a predetermined dose such as of 15 nmol/rat in volume of 0.1 ml (concentration 150 nmol/ml) or 60 nmol/kg body weight. […]
At each sampling time 0.25 ml blood is drawn from the tail vein using a 25 G needle. The blood is sampled into a EDTA coated test tube and stored on ice until centrifugation at 1200×G for 10 min at 4° C. […]
Test compound concentrations are determined by a sandwich ELISA using a guinea pig anti-hGH polyclonal antibody as catcher, and biotinylated hGH binding-protein (soluble part of human GH receptor) as detector. […]
A non-compartmental pharmacokinetic analysis is performed on mean concentration-time profiles of each test compound using WinNonlin Professional (Pharsight Inc., Mountain View, Calif., USA). The pharmacokinetic parameter estimates of terminal half-life (t1/2) and mean residence time (MRT) are calculated.

CCCCCCCCCC(=O)N(C)CC(=O)O [C10-Sarc, N-decanoyl-L-sarcosine]
Fold increase (Papp of GH A2 + FA-aa relative to GH A2 alone) (HT29-MTX (E12) cells): 0.7 fold

CCCCCCCCCCCC(=O)NCC(=O)O [C12-Gly, N-dodecanoyl-L-glycine]
Fold increase (Papp of GH A2 + FA-aa relative to GH A2 alone) (HT29-MTX (E12) cells): 3.4 fold

CCCCCCCCCCCCCCCC(=O)NC(CC(=O)O)C(=O)O (stereo not drawn) [C16-(D)-Asp]
Fold increase (Papp of GH A2 + FA-aa relative to GH A2 alone) (HT29-MTX (E12) cells): 1.8 fold

CCCCCCCCCCCCCCCC(=O)NC(CCC(=O)O)C(=O)O [C16-D-Glu]
Fold increase (Papp of GH A2 + FA-aa relative to GH A2 alone) (HT29-MTX (E12) cells): 4.1 fold

CCCCCCCCCCCCCCCC(=O)N[C@@H](CCC(N)=O)C(=O)[O-].[Na+] [C16-Gln, sodium (2S)-5-amino-5-oxo-2-(hexadecanoylamino)pentanoate]
effect on permeation / trans-epithelia transport of the growth hormone compounds (in words) (HT29-MTX (E12) cells): superior effect
effect on GH A1 transport (in words) (HT29-MTX (E12) cells): biggest effect
effect on the transportation of GH A2 (in words) (HT29-MTX (E12) cells): biggest effect

CCCCCCCCCCCCCCCC(=O)N[C@@H](CCC(=O)[O-])C(=O)[O-].[Na+].[Na+] [C16-Glu, disodium (2S)-2-(hexadecanoylamino)pentanedioate]
effect on permeation / trans-epithelia transport of the growth hormone compounds (in words) (HT29-MTX (E12) cells): superior effect
effect on GH A1 transport (in words) (HT29-MTX (E12) cells): biggest effect
effect on the transportation of GH A2 (in words) (HT29-MTX (E12) cells): biggest effect

CCCCCCCCCCCCCCCC(=O)N(C)CC(=O)[O-].[Na+] [C16-Sarc, sodium 2-[hexadecanoyl(methyl)amino]acetate]
effect of protease inhibitor on GH absorption enhancing effect of FA-aa (in words) [1]: significantly improved by the presence of an enzyme inhibitor

wt human growth hormone: human growth hormone identified by SEQ ID NO 1
T ½ [2]: 12 to 14 min
